Experimental data from paper PMC7060200, “Selective Binding of HSC70 and its Co-Chaperones to Structural Hotspots on CFTR” (Scientific Reports, 2020).
“Also recorded” adds a separate entry of the source. Ends that are not written are not given here.

Assays:
HSC70 and DJA2 = assay: Refolding of guanidine denatured luciferase by HSC70 and DJA2; assay type: biochemical; details: 4 μM each HSC70 and DJA2, 100 nM luciferase, 100 μM peptide (25-fold excess), 60 min, % of control without peptide; n = 3
Procedure: Refolding of guanidine denatured luciferase with HSC70 and DJA2 was as described. […] To monitor refolding, luciferase activity was measured in a luminometer (Berthold Sirius) with the luciferase assay kit (Promega). For co-IPs, 20 μL reaction aliquots were stopped by dilution at 4 °C to 500 μL with buffer containing 0.1% Triton X-100, 0.2% BSA and 0.04 mg/mL apyrase (Sigma). Reactions were incubated with FLAG-M2 magnetic beads (Sigma) for 1 h at 4 °C with agitation, then beads were isolated and washed with buffer G containing 0.1% Triton X-100, and eluted with 40 μL of 1 μg/mL FLAG peptide in the same buffer. Samples were analyzed on Western blots detected with antibodies against luciferase (Sigma, L2164) and the FLAG-M2 tag (Sigma, F1804).

DJA2 [1] = target: T1, DJA2 (Homo sapiens, UniProt O60884); assay: ELISA binding of DJA2 to immobilized biotinylated CFTR peptides
T1 construct: made in house
T1 sequence (O60884 whole entry): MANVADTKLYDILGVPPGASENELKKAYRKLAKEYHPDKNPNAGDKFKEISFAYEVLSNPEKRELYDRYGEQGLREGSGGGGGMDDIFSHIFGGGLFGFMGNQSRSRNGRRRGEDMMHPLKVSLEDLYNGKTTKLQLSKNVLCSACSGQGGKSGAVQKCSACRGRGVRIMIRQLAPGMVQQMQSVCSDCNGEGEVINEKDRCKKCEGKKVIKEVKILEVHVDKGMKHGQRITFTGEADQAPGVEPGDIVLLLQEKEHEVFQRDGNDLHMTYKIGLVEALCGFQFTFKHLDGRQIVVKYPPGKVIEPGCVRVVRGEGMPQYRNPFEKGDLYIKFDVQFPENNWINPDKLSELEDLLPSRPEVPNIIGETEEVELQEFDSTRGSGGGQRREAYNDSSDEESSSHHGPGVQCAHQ
Procedure: (§1) HSC70, DJA1 and DJA2 were purified as His-tagged proteins, as described. HSC70 was also amplified by PCR with an N-terminal FLAG tag, inserted into pPROEXHTa (Invitrogen) and purified as described. HSC70 was stored in 100 mM KOAc, 20 mM HEPES-KOH pH 7.5, 5 mM MgOAC2 (buffer G), DJA1 and DJA2 in 500 mM NaCl, 20 mM HEPES-KOH pH 7.5, 5 mM MgOAC2 (buffer H). Avi-tagged CFTR NBD1 was purified as described.
(§2) The CFTR peptide library was designed as 15-mers with 10-residue overlaps covering the cytosolic sequences as in Fig. 1a and Supplemental Table S1. Synthetic peptides (Mimotopes, PepSet purity) contained an N-terminal biotin followed by linker sequence GSGS and the 15-mer sequence. […] Peptides were reconstituted in DMSO or water.
(§3) For peptide binding, streptavidin-coated black 96-well plates (Nunc Maxisorp, ThermoFisher) were pre-rinsed with PBS containing 0.05% Tween-20 (PBST), and 5 µM biotinylated peptides in 100 µl PBS were bound overnnight at 4 °C with agitation. Plates were washed with PBST and blocked with PBST containing 0.5% bovine serum albumin (BSA) for 1 h. After removal of blocking solution, 100 µl reactions containing chaperones at indicated concentrations were bound for 45 min at room temperature with agitation. HSC70 reactions were in buffer G containing 1 mM ATP, DJA1 and DJA2 reactions were in buffer H. For competition assays, chaperones and peptides were mixed at indicated concentrations immediately before the reactions were added to the plates. For detections, the plates were washed in PBST and 5 μM His-Probe-HRP conjugate (ThermoFisher) in 100 μL PBST added for 15 min with agitation. After washing in PBST, plates were developed using Amplex Red (ThermoFisher) according to manufacturer’s instructions, in a fluorescence plate reader (Tecan M1000).
(§4) Affinities were determined separately from binding curves and from competition curves. Data from binding of chaperones to immobilized peptides (Fig. 2a,b and Supplemental Fig. S2a–c) were fit to the equation 1/(1 − i) = (C/i)/Kd^B − b, where i is the relative saturation, C is the chaperone concentration (1 μM), Kd^B is the apparent dissociation constant from the binding data. In the plot of 1/(1 − i) against (C/i), the slope is 1/Kd^B, and −b is the intercept. […] In the plot of bi + (C/Kd^B)/i over D, the slope is 1/Kd^C, and e is the intercept. The amount of chaperone bound in the absence of competitor was set as i = 1.
(§5) Established statistical methods[71]–[73] were used to analyze the data for chaperone binding to the peptide library. First, biological and statistical outliers were identified with the Tukey method in two rounds, for biological and then statistical outliers. […] Binding data were represented as multiples of the standard deviations from the normal means. Binding in the presence of competitor peptides were shown as a fraction of binding in the absence of competitor, or the fraction competed calculated as 1 – fraction bound. Values were compared using a two-tailed unpaired Student’s t-test assuming unequal variance.

HSC70 [2] = target: T2, HSC70 (Homo sapiens, UniProt P11142); assay: Competition ELISA: soluble peptide vs HSC70 binding to immobilized 1097-L; details: for competition of HSC70 binding to immobilized 1097-L (in words): 1 μM HSC70, soluble peptide up to 100 μM; for HSC70 binding site by competition screen (in words): 1 μM HSC70, 100 μM soluble peptide, Fig. 3c/5, cutoff twice SD of 733-L, n ≥ 4
T2 construct: made in house
T2 sequence (P11142 whole entry): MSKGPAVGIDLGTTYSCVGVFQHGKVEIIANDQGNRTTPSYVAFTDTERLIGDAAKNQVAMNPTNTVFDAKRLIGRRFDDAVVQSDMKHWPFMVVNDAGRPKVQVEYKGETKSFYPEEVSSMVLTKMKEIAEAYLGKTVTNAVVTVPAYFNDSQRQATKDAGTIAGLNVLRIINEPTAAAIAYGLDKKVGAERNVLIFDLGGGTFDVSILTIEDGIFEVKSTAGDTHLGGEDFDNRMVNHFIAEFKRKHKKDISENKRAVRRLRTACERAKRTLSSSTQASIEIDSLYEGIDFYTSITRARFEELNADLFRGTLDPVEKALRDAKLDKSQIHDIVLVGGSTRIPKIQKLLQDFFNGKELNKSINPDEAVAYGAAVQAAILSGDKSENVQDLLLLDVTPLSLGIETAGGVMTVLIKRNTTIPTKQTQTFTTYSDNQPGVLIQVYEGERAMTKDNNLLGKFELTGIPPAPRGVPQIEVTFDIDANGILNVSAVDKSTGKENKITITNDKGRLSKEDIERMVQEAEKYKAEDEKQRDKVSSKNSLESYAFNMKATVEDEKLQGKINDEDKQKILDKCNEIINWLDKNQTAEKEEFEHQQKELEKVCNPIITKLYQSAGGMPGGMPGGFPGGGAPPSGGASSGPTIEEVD
Procedure: as §1, §2, §3, §4, §5

DJA2 [3] = target: T1, DJA2; assay: Competition ELISA: soluble peptide vs DJA2 binding to immobilized 1097-L; details: for competition of DJA2 binding to immobilized 1097-L (in words): 1 μM DJA2, soluble peptide up to 100 μM
Procedure: as §1, §2, §3, §4, §5

DJA1 [4] = target: T3, DJA1 (Homo sapiens, UniProt P31689); assay: ELISA binding of DJA1 to immobilized biotinylated CFTR peptides
T3 construct: made in house
Procedure: as §1, §2, §3, §4, §5

DJA1 [5] = target: T3, DJA1; assay: Competition ELISA: soluble peptide vs DJA1 binding to immobilized 1097-L; details: for DJA1 binding site by competition screen (in words): 1 μM DJA1, 100 μM soluble peptide, Fig. 3c/5, cutoff twice SD of 733-L, n ≥ 4
Procedure: as §1, §2, §3, §4, §5

HSC70 [6] = target: T2, HSC70; assay: ELISA binding of HSC70 to immobilized biotinylated CFTR peptides
Procedure: as §1, §2, §3, §4, §5

FLYLSTLRWFQMRIE [Peptide 1097-L]
effect on luciferase refolding (in words) (HSC70 and DJA2): blocked refolding entirely | binding in peptide library screen, DJA2 (in words) (DJA2 [1]; 2 μM DJA2, absence of ATP, immobilized 15-mer, n ≥ 3): most consistently bound by all three chaperones | titration binding / saturation, DJA2 (in words) (DJA2 [1]; DJA2 titrated to 1.5 μM on immobilized peptide, Fig. 2b, S2c, n = 3): at or close to saturation above 1 μM; also recorded: higher than to the other peptides | Kd (DJA2 [1]; immobilized peptide (biotin-GSGS-15-mer), DJA2 titrated in buffer H pH 7.5, no nucleotide, 45 min, room temperature, n = 3, read-out: Kd from binding curves, DJA2): 75 nM | competition of HSC70 binding to immobilized 1097-L (in words) (HSC70 [2]): Strong, essentially saturating competition | Kd (HSC70 [2]; read-out: Kd from competition curves, HSC70): 602 nM | competition of DJA2 binding to immobilized 1097-L (in words) (DJA2 [3]): similarly competed | Kd (DJA2 [3]; read-out: Kd from competition curves, DJA2): 585 nM | binding in peptide library screen, DJA1 (in words) (DJA1 [4]; 2 μM DJA1, absence of ATP, immobilized 15-mer, n ≥ 3): most consistently bound by all three chaperones | titration binding / saturation, DJA1 (in words) (DJA1 [4]; DJA1 titrated to 1.5 μM on immobilized peptide, Fig. 2b, S2b, n = 3): at or close to saturation above 1 μM; also recorded: higher than to the other peptides | Kd (DJA1 [4]; immobilized peptide (biotin-GSGS-15-mer), DJA1 titrated in buffer H pH 7.5, no nucleotide, 45 min, room temperature, n = 3, read-out: Kd from binding curves, DJA1): 167 nM | competition of DJA1 binding to immobilized 1097-L (in words) (DJA1 [5]; 1 μM DJA1, soluble peptide up to 100 μM): similarly competed | Kd (DJA1 [5]; read-out: Kd from competition curves, DJA1): 2430 nM | HSC70 binding in ATP compared with ADP or no nucleotide (HSC70 [6]; 1 μM HSC70, immobilized 1097-L, Fig. S1a, n ≥ 4): somewhat lower than in ADP or the absence of nucleotide | binding in peptide library screen, HSC70 (in words) (HSC70 [6]; 2 μM HSC70, with ATP, immobilized 15-mer, n ≥ 3): most consistently bound by all three chaperones | titration binding / saturation, HSC70 (in words) (HSC70 [6]; HSC70 titrated to 1.5 μM on immobilized peptide, Fig. 2a, S2a, n ≥ 6): higher than to the other peptides | Kd (HSC70 [6]; immobilized peptide (biotin-GSGS-15-mer), HSC70 titrated in buffer G pH 7.5 + 1 mM ATP, 45 min, room temperature, n ≥ 6, read-out: Kd from binding curves, HSC70): 58 nM | HSC70 concentration at which binding reached saturation (HSC70 [6]; titration on immobilized peptide, Fig. 2a, n ≥ 6): around 1 μM

HRIEAMLEC [Peptide 1406-S, NBD2 9-mer]
HSC70 binding site by competition screen (in words) (HSC70 [2]): HSC70 site

ILCEHRIEA [Peptide 1402-S, NBD2 9-mer]
HSC70 binding site by competition screen (in words) (HSC70 [2]): HSC70 site

LRWFQMRIE [Peptide 1100-S]
competition of DJA2 binding to immobilized 1097-L (in words) (DJA2 [3]): competed

QAFADCTVI [Peptide 1394-S, NBD2 9-mer]
HSC70 binding site by competition screen (in words) (HSC70 [2]): bound by HSC70, DJA2 and DJA1 | DJA2 binding site by competition screen (in words) (DJA2 [3]; 1 μM DJA2, 100 μM soluble peptide, Fig. 3c/5, cutoff twice SD of 733-L, n ≥ 4): bound by HSC70, DJA2 and DJA1 | DJA1 binding site by competition screen (in words) (DJA1 [5]): bound by HSC70, DJA2 and DJA1

SCVCKLMAN [Peptide 593-S, NBD1 9-mer]
DJA1 binding site by competition screen (in words) (DJA1 [5]): DJA1 site

SKLFFSWTR [Peptide 17-S]
effect on luciferase refolding (in words) (HSC70 and DJA2): partial but still significant | competition of HSC70 binding to immobilized 1097-L (in words) (HSC70 [2]): competed HSC70 well
